# According to publication PMC3142157, “Sensitive and Specific Fluorescent Probes for Functional Analysis of the Three Major Types of Mammalian ABC Transporters” (PLoS ONE, 2011):
# How the values were obtained:
# A549 cells = assay: Dye uptake flow cytometry MDR assay (MAF / D-values), A549 cells; assay type: cell-based, human; settings: dye uptake protocol; for MAF value, Fumitremorgin C: probe with vs without fumitremorgin C; for MAF value, Probenecid: probe with vs without probenecid; for MAF value, Verapamil: probe with vs without verapamil
# Protocol: (§1) Detailed protocol for the MDR assay is available in the Instruction Manual for eFluxx-ID® Green or Gold Multi-Drug Resistance Assay Kit (ENZO Life Sciences, Inc., Farmingdale, NY). Briefly, on the day of the assay, cells were collected, washed with PBS and incubated with or without MDR inhibitors in the presence of the eFluxx-ID® Green or Gold probes for 30 min at 37°C and analyzed immediately by flow cytometry. eFluxx-ID® Green or Gold probes are novel xanthene-based small molecule dyes developed for the detection of MDR activity in living cells. In order to exclude dead cells in the analyses, propidium iodide (PI) or 7-actinaminomycin D (7-AAD) solution was added to the cells during the last 5 min of incubation in some experiments.
# (§2) To develop a minimal step assay procedure for the dye uptake protocol, three modifications of the protocol were investigated. One set of the cells was treated according to a general “no-wash” protocol (see Instruction Manual for the kit). In the second set of tubes, the reaction was stopped by rapid centrifugation (1 min) at relatively low speed (200×g). After washing with ice-cold PBS and discarding the supernatant, cells were re-suspended in 0.5 ml of ice-cold medium and kept on ice until flow cytometry analysis was performed. The third set of cells was simply spun down (1 min, 200×g) to remove the excess probe, resuspended in ice-cold medium and kept on ice until flow cytometry analysis was performed. eFluxx-ID® Green dye (ex/em 490/514 nm) fluorescence intensity was measured in the FL1/FITC (530/30 filter) channel, and eFluxx-ID® Gold dye (ex/em 530/555 nm) fluorescence intensity was monitored in the FL2/PE (585/42 filter) channel.
# (§3) Experiments were performed using a FACS Calibur benchtop flow cytometer (BD Biosciences, San Jose, CA) equipped with a blue (488 nm) laser, and the signals were registered in the FITC (530/30 filter), PE (585/42 filter) and PerCP (670 LP filter) channels. eFluxx-ID® Green dye fluorescence was measured in the FL1/FITC channel, and eFluxx-ID® Gold dye fluorescence, in the FL2/PE channel. Data analysis was performed using FlowJo 8.8.2 software (Tree Star, Inc., Ashland, OR).
# (§4) All of the experiments were performed at least three times. Results were expressed as mean ± S.E. Statistical comparisons were made using an unpaired two-tailed Student's t-test. A P value of <0.05 was considered significant. Flow cytometry data were analyzed by comparison of median fluorescence, by using Kolmogorov-Smirnov statistics (D-value) or by calculating MDR Activity Factor (MAF) values using the following formula: MAF = 100*((MFIinh−MFI0)/MFIinh), wherein MFIinh and MFI0 are the mean fluorescence intensity values measured in the presence and absence of inhibitor [7].
# HL-60/MX1 cells = assay: Dye uptake flow cytometry MDR assay (MAF), HL-60/MX1 cells; assay type: cell-based, human
# Protocol: (§5) Detailed protocol for the MDR assay is available in the Instruction Manual for eFluxx-ID® Green or Gold Multi-Drug Resistance Assay Kit (ENZO Life Sciences, Inc., Farmingdale, NY). […] In order to exclude dead cells in the analyses, propidium iodide (PI) or 7-actinaminomycin D (7-AAD) solution was added to the cells during the last 5 min of incubation in some experiments. Experiments were performed using a FACS Calibur benchtop flow cytometer (BD Biosciences, San Jose, CA) equipped with a blue (488 nm) laser, and the signals were registered in the FITC (530/30 filter), PE (585/42 filter) and PerCP (670 LP filter) channels. eFluxx-ID® Green dye fluorescence was measured in the FL1/FITC channel, and eFluxx-ID® Gold dye fluorescence, in the FL2/PE channel. Data analysis was performed using FlowJo 8.8.2 software (Tree Star, Inc., Ashland, OR). All of the experiments were performed at least three times. Results were expressed as mean ± S.E. Statistical comparisons were made using an unpaired two-tailed Student's t-test. […] Additionally, HCT-8 cell line reported to overexpress both MDR1 and MRP transporters, [21] was tested. HCT-8, HCT-15, HepG2, HL-60 and HL-60/MX1 cells were grown on tissue culture dishes and on the day of assay were incubated with eFluxx-ID® Green and Gold probes with and without inhibitors according to the described dye uptake protocol (Materials and Methods) and analyzed by flow cytometry.
# HepG2 cells = assay: Dye uptake flow cytometry MDR assay (MAF), HepG2 cells; assay type: cell-based, human; settings: for MAF value, CsA: probe with vs without CsA; for MAF value, CsA / MAF value, Nov / MAF value, Ver: mean ± SEM; for MAF value, MK571: probe with vs without MK571, mean ± SEM; for MAF value, Nov: probe with vs without Nov; for MAF value, Ver: probe with vs without Ver
# Protocol: as §5
# HeLa cells = assay: Dye uptake flow cytometry MDR assay (MAF), HeLa cells; assay type: cell-based, human; settings: dye uptake protocol; for MAF value, Fumitremorgin C: probe with vs without fumitremorgin C; for MAF value, Probenecid: probe with vs without probenecid; for MAF value, Verapamil: probe with vs without verapamil
# Protocol: as §1, §2, §3, §4
# HCT-8 cells = assay: Dye uptake flow cytometry MDR assay (MAF), HCT-8 cells; assay type: cell-based, human; settings: for MAF value, CsA: probe with vs without CsA; for MAF value, CsA / MAF value, Nov / MAF value, Ver: mean ± SEM; for MAF value, MK571: probe with vs without MK571, mean ± SEM; for MAF value, Nov: probe with vs without Nov; for MAF value, Ver: probe with vs without Ver
# Protocol: as §5
# HCT-15 cells = assay: Dye uptake flow cytometry MDR assay (MAF), HCT-15 cells; assay type: cell-based, human
# Protocol: as §5
# CHO K1 cells = assay: Dye uptake flow cytometry MDR assay (MAF / D-values), CHO K1 cells; assay type: cell-based, hamster; settings: for MAF value, Fumitremorgin C / MAF value, Probenecid / MAF value, Verapamil: CHO K1 cells, dye uptake protocol; for MAF value, Fumitremorgin C: probe with vs without fumitremorgin C; for MAF value, Probenecid: probe with vs without probenecid; for MAF value, Verapamil: probe with vs without verapamil; for D-values Post Inhibitor Treatment (compared to uninhibited cells), CsA / D-values Post Inhibitor Treatment (compared to uninhibited cells), FTC / D-values Post Inhibitor Treatment (compared to uninhibited cells), MK-571 / D-values Post Inhibitor Treatment (compared to uninhibited cells), Verapamil: CHO K1
# Protocol: as §1, §2, §3, §4
# HL-60 cells = assay: Dye uptake flow cytometry MDR assay (MAF), HL-60 cells; assay type: cell-based, human
# Protocol: as §5
# [1] = probe with vs without CsA, mean ± SEM
# [2] = probe with vs without MK571, mean ± SEM
# [3] = probe with vs without Nov, mean ± SEM
# [4] = probe with vs without Ver, mean ± SEM
# [5] = dual probe treatment eFluxx-ID Gold + CMFDA
# [6] = triple probe treatment CMFDA + eFluxx-ID Gold + Pheophorbide A
Molecule,"MAF value, Fumitremorgin C (A549 cells)","MAF value, Probenecid (A549 cells)","MAF value, Verapamil (A549 cells)","MAF value, CsA (HepG2 cells)","MAF value, MK571 (HepG2 cells)","MAF value, Nov (HepG2 cells)","MAF value, Ver (HepG2 cells)","MAF value, Fumitremorgin C (HeLa cells)","MAF value, Probenecid (HeLa cells)","MAF value, Verapamil (HeLa cells)","MAF value, CsA (HCT-8 cells)","MAF value, MK571 (HCT-8 cells)","MAF value, Nov (HCT-8 cells)","MAF value, Ver (HCT-8 cells)","MAF value, Fumitremorgin C (CHO K1 cells)","MAF value, Probenecid (CHO K1 cells)","MAF value, Verapamil (CHO K1 cells)",also measured
Calcein AM,1.3,19.5,28.0,59.0±2.4,40.7±4.5,3.0±0.1,22.0±2.9,0.2,12.2,13.0,46.5±5.1,31.1±4.7,7.1±0.4,25.9±0.9,6.4,55.3,63.9,"MAF value, CsA (HL-60/MX1 cells; [1]): 18.2±2.7; MAF value, MK571 (HL-60/MX1 cells; [2]): 10.8±1.8; MAF value, Nov (HL-60/MX1 cells; [3]): 5.9±1.2; MAF value, Ver (HL-60/MX1 cells; [4]): 1.6±0.3; MAF value, CsA (HCT-15 cells; [1]): 67.2±2.0; MAF value, MK571 (HCT-15 cells; [2]): 13.5±2.9; MAF value, Nov (HCT-15 cells; [3]): 4.3±2.2; MAF value, Ver (HCT-15 cells; [4]): 62.9±2.6; MAF value, CsA (HL-60 cells; [1]): 15.2±2.5; MAF value, MK571 (HL-60 cells; [2]): 8.0±1.7; MAF value, Nov (HL-60 cells; [3]): 8.6±1.5; MAF value, Ver (HL-60 cells; [4]): 2.5±1.1"
"CC(=O)Oc1ccc2c(c1)Oc1cc(OC(C)=O)ccc1C21OC(=O)c2cc(CCl)ccc21 [CMFDA, chloromethylfluorescein diacetate]",20.7,27.1,16.6,50.4±1.3,52.2±3.8,7.0±1.7,12.8±1.3,11.4,9.0,7.6,43.0±3.2,39.2±3.6,0,21.2±3.2,0,56.9,34.3,"D-values Post Inhibitor Treatment (compared to uninhibited cells), CsA (CHO K1 cells; [5]): 0.49; D-values Post Inhibitor Treatment (compared to uninhibited cells), FTC (CHO K1 cells; [5]): 0.06; D-values Post Inhibitor Treatment (compared to uninhibited cells), MK-571 (CHO K1 cells; [5]): 0.91; D-values Post Inhibitor Treatment (compared to uninhibited cells), Verapamil (CHO K1 cells; [5]): 0.1; D-values Post Inhibitor Treatment (compared to uninhibited cells), CsA (CHO K1 cells; [6]): 0.47; D-values Post Inhibitor Treatment (compared to uninhibited cells), FTC (CHO K1 cells; [6]): 0.14; D-values Post Inhibitor Treatment (compared to uninhibited cells), MK-571 (CHO K1 cells; [6]): 0.89; D-values Post Inhibitor Treatment (compared to uninhibited cells), Verapamil (CHO K1 cells; [6]): 0.10"
